This is an account of results in patent US9511341B2, “Method for preparing acetazolamide sodium powder” (SCI Pharmtech, Inc., priority 2013, dated 2016).

For data set [1] the following is noted: cited from earlier work.
Data set [2] can be described thus: Impurity D (hydrolysis product) in spray dried powder by USP HPLC method. Type of data set: physicochemical. The following applies: air vs N2 as drying gas, judged by difference of impurity D. The procedure:
In the developed spray drying process, the spray dryer was initiated in the preferred conditions (such as temperature and flow rate of the heated gas, and pneumatic pressure). In the meantime, an acetazolamide sodium solution was prepared by dispersing the acetazolamide powder into water in a flask inerted with N2 and then mixing the acetazolamide suspension with sodium hydroxide solution. After stirring for 15 min, an acetazolamide sodium solution was obtained and pumped into the spray dryer to proceed the drying process. During the drying process, the acetazolamide sodium solution was fed and atomized into mist by a two-fluid nozzle, and then the water was rapidly vaporized and accompanied with the nucleation of acetazolamide sodium particles in the gas flow of drying chamber. The formed particles were immediately carried into the cyclone, in which the separation of gas-solid was performed. The uncollected particles were recovered by the wet scrubber connected to the exit of cyclone. Finally, the acetazolamide sodium powder in the collector was examined by a halogen moisture analyzer and an analytical HPLC method specified in the current USP monograph of acetazolamide for injection.
In Example 2, the amount of impurity D in the acetazolamide free base was about 0.098-0.110 wt %. […]

With `CC(=O)Nc1nnc(S(N)(=O)=O)s1` [acetazolamide], the Solubility in water result in data set [1] is “extremely low solubility in water”.
Regarding `CC(=O)Nc1nnc(S(N)(=O)=O)s1` [acetazolamide sodium powder, Acetazolamide sodium], in data set [2], the “Oxygen sensitivity during spray drying” value was “not oxygen-sensitive”. For the same compound, the Solubility in water entry in data set [1] is listed as “easily dissolves in water”.
